ChEMBL document CHEMBL4610066, “Phytol, a Chlorophyll Component, Produces Antihyperalgesic, Anti-inflammatory, and Antiarthritic Effects: Possible NFκB Pathway Involvement and Reduced Levels of the Proinflammatory Cytokines TNF-α and IL-6” (J Nat Prod, 2020)
Calls of active or inactive are those of the source.

Key:
Mus musculus [1] = test: Antiinflammatory activity in complete freund's adjuvant-induced albino Swiss mouse model of arthritis assessed as reduction in COX2 production in spinal cord at 50 mg/kg, po pretreated for 1 hr followed by CFA stimulation and measured after 3 days by Western blot analysis; assay type: functional, organism-based
Mus musculus [2] = test: Analgesic activity in complete freund's adjuvant-induced albino Swiss mouse model of hyperalgesia assessed as increase in paw withdrawal threshold at 50 mg/kg, po administered daily and measured every other for 10 days and on day 21 and 28; assay type: functional, organism-based
Mus musculus [3] = test: Antiinflammatory activity in complete freund's adjuvant-induced albino Swiss mouse model of arthritis assessed as reduction in joint swelling at 50 mg/kg, po administered once daily for 10 days measured every other day during compound dosing; assay type: functional, organism-based
Mus musculus [4] = test: In vivo inhibition of NFkappaB phosphorylation at ser536 residue in complete freund's adjuvant-induced albino Swiss mouse model of arthritis at 50 mg/kg, po pretreated for 1 hr followed by CFA stimulation and measured after 3 days by Western blot analysis; assay type: functional, organism-based
Mus musculus [5] = test: Analgesic activity in albino Swiss mouse assessed as increase in reaction time at 50 mg/kg, po measured after 60 to 240 mins by hot plate test; assay type: functional, organism-based
Mus musculus [6] = test: Antiinflammatory activity in complete freund's adjuvant-induced albino Swiss mouse model of arthritis assessed as reduction in leukocyte content in synovial fluid at 50 mg/kg, po pretreated for 1 hr followed by CFA stimulation and measured after 3 days; assay type: functional, organism-based
Mus musculus [7] = test: Analgesic activity in albino Swiss mouse assessed as increase in reaction time at 25 mg/kg, po measured after 120 to 240 mins by hot plate test; assay type: functional, organism-based
Mus musculus [8] = test: Antiinflammatory activity in complete freund's adjuvant-induced albino Swiss mouse model of arthritis assessed as reduction in IL6 production in spinal cord at 50 mg/kg, po pretreated for 1 hr followed by CFA stimulation and measured after 3 days; assay type: functional, organism-based
[9] = Neurotoxicity in complete freund's adjuvant-induced albino Swiss mouse model of arthritis assessed as motor coordination impairment at 50 mg/kg, po pretreated for 1 hr followed by CFA stimulation and measured up to 240 mins by rotarod test; assay type: toxicity, organism-based; conditions: in vivo, 4 h
Mus musculus [10] = test: Antiinflammatory activity in complete freund's adjuvant-induced albino Swiss mouse model of arthritis assessed as reduction in TNFalpha production in synovial fluid at 50 mg/kg, po pretreated for 1 hr followed by CFA stimulation and measured after 3 days; assay type: functional, organism-based
Mus musculus [11] = test: Antiinflammatory activity in complete freund's adjuvant-induced albino Swiss mouse model of arthritis assessed as reduction in paw edema AUC at 50 mg/kg, po pretreated for 1 hr followed by CFA stimulation and measured up to 6 hrs by plethysmometric method relative to control; assay type: functional; set-up: scale not given: the % may be the effect or the level left
Mus musculus [12] = test: Effect on ERK1/2 signaling in complete freund's adjuvant-induced albino Swiss mouse model of arthritis at 50 mg/kg, po pretreated for 1 hr followed by CFA stimulation and measured after 3 days by Western blot analysis; assay type: functional, organism-based
Mus musculus [13] = test: Analgesic activity in albino Swiss mouse assessed as increase in reaction time at 25 mg/kg, po measured after 60 to 90 mins by hot plate test; assay type: functional, organism-based
Mus musculus [14] = test: Analgesic activity in formalin-induced albino Swiss mouse model of nociception assessed as reduction in time spent in paw licking during inflammatory phase at 25 to 50 mg/kg, po pretreated for 1 hr followed by formalin stimulation and measured after 15 to 30 mins by formalin test; assay type: functional, organism-based
Mus musculus [15] = test: Antiinflammatory activity in complete freund's adjuvant-induced albino Swiss mouse model of arthritis assessed as reduction in edema AUC at 50 mg/kg, po administered once daily for 10 days measured every other day during compound dosing relative to control; assay type: functional; set-up: scale not given: the % may be the effect or the level left
Mus musculus [16] = test: Antiinflammatory activity in complete freund's adjuvant-induced albino Swiss mouse model of arthritis assessed as reduction in paw volume at 25 to 50 mg/kg, po pretreated for 1 hr followed by CFA stimulation and measured after 2 hrs by plethysmometric method; assay type: functional, organism-based
Mus musculus [17] = test: Antiinflammatory activity in complete freund's adjuvant-induced albino Swiss mouse model of arthritis assessed as reduction in paw edema at 50 mg/kg, po pretreated for 1 hr followed by CFA stimulation and measured up to 6 hrs by plethysmometric method relative to control; assay type: functional; set-up: scale not given: the % may be the effect or the level left
Mus musculus [18] = test: Antiinflammatory activity in complete freund's adjuvant-induced albino Swiss mouse model of arthritis assessed as suppression of CFA-induced increase in total NFkappaB level at 50 mg/kg, po pretreated for 1 hr followed by CFA stimulation and measured after 3 days by Western blot analysis; assay type: functional, organism-based
Mus musculus [19] = test: In vivo inhibition of MAPK pathway in complete freund's adjuvant-induced albino Swiss mouse model of arthritis assessed as reduction in phosphorylated p38 MAPK to total p38 MAPK ratio in spinal cord at 50 mg/kg, po pretreated for 1 hr followed by CFA stimulation and measured after 3 days by Western blot analysis; assay type: functional, organism-based
Mus musculus [20] = test: Antiinflammatory activity in complete freund's adjuvant-induced albino Swiss mouse model of arthritis assessed as reduction in MPO activity in synovial fluid at 50 mg/kg, po pretreated for 1 hr followed by CFA stimulation and measured after 3 days; assay type: functional, organism-based
Mus musculus [21] = test: Antiinflammatory activity in complete freund's adjuvant-induced albino Swiss mouse model of arthritis assessed as reduction in paw edema AUC at 25 mg/kg, po pretreated for 1 hr followed by CFA stimulation and measured up to 6 hrs by plethysmometric method relative to control; assay type: functional; set-up: scale not given: the % may be the effect or the level left
Mus musculus [22] = test: Antiinflammatory activity in complete freund's adjuvant-induced albino Swiss mouse model of arthritis assessed as reduction in IL10 production in synovial fluid at 50 mg/kg, po pretreated for 1 hr followed by CFA stimulation and measured after 3 days; assay type: functional, organism-based
[23] = Neurotoxicity in complete freund's adjuvant-induced albino Swiss mouse model of arthritis assessed as induction of myorelaxant effect by measuring change in muscle force at 50 mg/kg, po pretreated for 1 hr followed by CFA stimulation and measured every other day for 10 days by grip strength meter method; assay type: toxicity, organism-based; conditions: in vivo, 240 h
Mus musculus [24] = test: Antiinflammatory activity in complete freund's adjuvant-induced albino Swiss mouse model of arthritis assessed as reduction in IL6 production in synovial fluid at 50 mg/kg, po pretreated for 1 hr followed by CFA stimulation and measured after 3 days; assay type: functional, organism-based
Mus musculus [25] = test: Analgesic activity in formalin-induced albino Swiss mouse model of nociception assessed as reduction in time spent in paw licking during neurogenic phase at 50 mg/kg, po pretreated for 1 hr followed by formalin stimulation and measured up to 5 mins by formalin test; assay type: functional, organism-based
Mus musculus [26] = test: Analgesic activity in complete freund's adjuvant-induced albino Swiss mouse model of hyperalgesia assessed as increase in paw withdrawal threshold at 50 mg/kg, po pretreated for 1 hr followed by CFA stimulation and measured after 7 hrs by analgesimetric method; assay type: functional, organism-based

C/C(=C\CO)CCC[C@H](C)CCC[C@H](C)CCCC(C)C [TRANS-PHYTOL]
45%: Activity (Mus musculus [11]) | Activity (Mus musculus [17])
46%: Activity (Mus musculus [15])
Non-Toxic: Activity [9] | Activity [23]
18%: Activity (Mus musculus [21])
active: Activity (Mus musculus [1]) | Activity (Mus musculus [2]) | Activity (Mus musculus [3]) | inhibition (Mus musculus [4]) | Activity (Mus musculus [5]) | Activity (Mus musculus [6]) | Activity (Mus musculus [8]) | Activity (Mus musculus [10]) | Activity (Mus musculus [13]) | Activity (Mus musculus [14]) | Activity (Mus musculus [16]) | Activity (Mus musculus [18]) | inhibition (Mus musculus [19]) | Activity (Mus musculus [20]) | Activity (Mus musculus [24]) | Activity (Mus musculus [25]) | Activity (Mus musculus [26])
inactive: Activity (Mus musculus [7]) | Activity (Mus musculus [12]) | Activity (Mus musculus [22])
